Measurements from patent US8188129B2, “(−)-enantiomer of the 2-[2-(1-chloro-cyclopropyl)-3-(2-chlorophenyl)-2-hydroxypropyl]-2,4-dihydro-[1,2,4]-triazole-3-thione” (Bayer Aktiengesellschaft, priority 1999, dated 2012).

Experiments:
[1] = test system: Podosphaera leucotricha; test: Podosphaera test (apple)/protective; format: in vivo; conditions: protective spray, application rate 10 g/ha, evaluation 10 days after inoculation
[2] = test system: Uncinula necator; test: Uncinula test (vine)/protective; format: in vivo; conditions: protective spray, application rate 10 g/ha, evaluation 14 days after inoculation
[3] = test system: Pyricularia oryzae; format: in vivo; conditions: rice, protective spray, application rate 375 g/ha, evaluation 4 days after inoculation
[4] = test system: Venturia inaequalis; test: Venturia test (apple)/curative; conditions: curative spray, application rate 1 g/ha, evaluation 12 days after inoculation
Experimental: To test for curative activity, young plants are inoculated with an aqueous conidia suspension of the apple scab pathogen Venturia inaequalis. The plants remain in an incubation cabin at approximately 20° C. and 100% relative atmospheric humidity for 1 day and are then placed in a greenhouse.
The plants are then placed in a greenhouse at approximately 21° C. and a relative atmospheric humidity of approximately 90%.
Evaluation is carried out 12 days after the inoculation.

[5] = test system: Cochliobolus sativus; test: Cochliobolus sativus test (barley)/protective; conditions: protective spray, evaluation 7 days after inoculation
Experimental: After the spray coating has dried on, the plants are sprayed with a conidia suspension of Cochiliobolus sativus. The plants remain in an incubation cabin at 20° C. and 100% relative atmospheric humidity for 48 hours.
The plants are placed in a greenhouse at a temperature of 20° C. and a relative atmospheric humidity of approximately 80%.
Evaluation is carried out 7 days after the inoculation.

Row | SMILES | Efficacy in % [1] | Efficacy in % [2] | Efficacy in % [3] | Efficacy in % [4] | Efficacy in % ([5]; application rate 125 g/ha) | Efficacy in % ([5]; application rate 250 g/ha)
1 | OC(Cc1ccccc1Cl)(Cn1nc[nH]c1=S)C1(Cl)CC1 (single isomer, unassigned; (-)) [(I), (−)-enantiomer of 2-[2-(1-chloro-cyclopropyl)-3-(2-chlorophenyl)-2-hydroxypropyl]-2,4-dihydro-[1,2,4]-triazole-3-thione] | 78% | 84% | 90% | 91% | 75% | 75%
2 | OC(Cc1ccccc1Cl)(Cn1nc[nH]c1=S)C1(Cl)CC1 (racemic) [(Ia), racemic 2-[2-(1-chloro-cyclopropyl)-3-(2-chloro-phenyl)-2-hydroxypropyl]-2,4-dihydro-[1,2,4]-triazole-3-thione] | 60% | 47% | 30% | 79% | 59% | 66%
